Measurements taken from patent publication US12065436B2, “Cardiac sarcomere inhibitors” (Cytokinetics, Inc., priority 2018, dated 2024).

Target: bovine cardiac myofibrils (full-length cardiac myosin ATPase in the native sarcomere) (Bos taurus (Bovine), UniProt Q9BE39)
Assay: Skinned bovine cardiac myofibril ATPase assay (PK/LDH-coupled)
Type: biochemical
Conditions: Ca2+ activating to 75% of maximal rate; for CDMF75 IC15: concentration giving 15% inhibition; for IC50: read-out: CDMF75 IC50
Procedure, shortened: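 Inhibition of steady-state ATPase read at 340 nm through a PK/LDH-coupled NADH system (0.5 mM NADH, 1.5 mM PEP). Detergent-skinned bovine cardiac myofibrils, 1 mg/mL, were tested at pH 6.8 in PIPES/MgCl2 with 50 μM ATP and calcium adjusted to give pCa50 or pCa75 activation.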

bovine cardiac myofibrils (full-length cardiac myosin ATPase in the native sarcomere), sequence (Q9BE39 whole entry): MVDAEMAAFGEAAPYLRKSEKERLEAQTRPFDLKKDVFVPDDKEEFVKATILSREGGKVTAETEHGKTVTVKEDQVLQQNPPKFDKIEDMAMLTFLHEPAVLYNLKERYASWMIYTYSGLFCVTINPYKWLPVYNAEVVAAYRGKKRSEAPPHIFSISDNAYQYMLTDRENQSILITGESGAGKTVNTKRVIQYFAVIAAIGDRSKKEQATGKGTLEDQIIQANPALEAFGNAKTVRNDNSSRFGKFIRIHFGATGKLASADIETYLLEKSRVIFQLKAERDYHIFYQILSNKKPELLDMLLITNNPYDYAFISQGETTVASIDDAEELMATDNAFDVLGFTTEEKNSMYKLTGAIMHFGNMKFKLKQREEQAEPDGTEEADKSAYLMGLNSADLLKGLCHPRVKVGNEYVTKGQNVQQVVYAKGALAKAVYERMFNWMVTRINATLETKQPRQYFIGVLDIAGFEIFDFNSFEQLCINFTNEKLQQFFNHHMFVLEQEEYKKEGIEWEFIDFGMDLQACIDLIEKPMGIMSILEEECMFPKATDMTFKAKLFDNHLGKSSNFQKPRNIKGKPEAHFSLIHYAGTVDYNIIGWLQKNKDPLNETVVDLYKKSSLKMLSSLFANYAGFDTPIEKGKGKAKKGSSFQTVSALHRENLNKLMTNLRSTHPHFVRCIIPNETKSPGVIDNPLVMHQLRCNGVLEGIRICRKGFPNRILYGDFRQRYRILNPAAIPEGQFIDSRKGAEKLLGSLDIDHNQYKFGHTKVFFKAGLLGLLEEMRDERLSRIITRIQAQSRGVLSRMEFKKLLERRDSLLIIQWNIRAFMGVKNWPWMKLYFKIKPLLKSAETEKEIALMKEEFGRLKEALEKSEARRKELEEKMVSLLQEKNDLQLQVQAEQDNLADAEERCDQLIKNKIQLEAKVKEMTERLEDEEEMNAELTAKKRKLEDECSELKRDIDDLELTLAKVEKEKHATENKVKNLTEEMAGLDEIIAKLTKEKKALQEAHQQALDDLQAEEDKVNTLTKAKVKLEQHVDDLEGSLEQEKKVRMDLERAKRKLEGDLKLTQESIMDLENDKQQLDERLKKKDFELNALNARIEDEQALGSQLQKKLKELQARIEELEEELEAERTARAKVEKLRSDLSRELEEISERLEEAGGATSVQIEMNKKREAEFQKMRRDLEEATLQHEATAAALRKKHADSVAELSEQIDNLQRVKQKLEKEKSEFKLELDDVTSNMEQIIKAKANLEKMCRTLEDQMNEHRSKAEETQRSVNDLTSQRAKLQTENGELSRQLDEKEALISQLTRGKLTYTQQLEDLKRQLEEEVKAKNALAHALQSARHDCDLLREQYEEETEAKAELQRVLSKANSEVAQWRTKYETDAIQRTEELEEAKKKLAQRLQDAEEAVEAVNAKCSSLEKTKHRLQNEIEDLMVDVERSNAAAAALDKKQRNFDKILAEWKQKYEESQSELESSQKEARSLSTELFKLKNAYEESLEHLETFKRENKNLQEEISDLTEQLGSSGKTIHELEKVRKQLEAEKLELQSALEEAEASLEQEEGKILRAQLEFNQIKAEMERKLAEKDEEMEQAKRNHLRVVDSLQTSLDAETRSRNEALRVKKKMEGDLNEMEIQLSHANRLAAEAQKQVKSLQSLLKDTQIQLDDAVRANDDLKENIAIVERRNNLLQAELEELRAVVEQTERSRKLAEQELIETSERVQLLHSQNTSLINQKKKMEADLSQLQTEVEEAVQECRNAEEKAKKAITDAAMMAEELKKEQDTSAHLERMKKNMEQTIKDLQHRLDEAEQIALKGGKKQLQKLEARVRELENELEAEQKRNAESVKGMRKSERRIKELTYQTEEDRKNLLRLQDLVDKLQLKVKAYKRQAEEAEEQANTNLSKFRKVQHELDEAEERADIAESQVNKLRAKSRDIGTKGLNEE
bovine cardiac myofibrils (full-length cardiac myosin ATPase in the native sarcomere), sequence (P85100 whole entry partner): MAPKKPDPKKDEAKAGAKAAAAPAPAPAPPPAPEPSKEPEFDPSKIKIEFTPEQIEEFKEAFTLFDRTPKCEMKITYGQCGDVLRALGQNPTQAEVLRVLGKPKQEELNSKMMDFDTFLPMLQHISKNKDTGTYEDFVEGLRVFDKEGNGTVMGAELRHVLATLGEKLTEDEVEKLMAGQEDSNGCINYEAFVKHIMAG
bovine cardiac myofibrils (full-length cardiac myosin ATPase in the native sarcomere), sequence (Q3SZE5 whole entry partner): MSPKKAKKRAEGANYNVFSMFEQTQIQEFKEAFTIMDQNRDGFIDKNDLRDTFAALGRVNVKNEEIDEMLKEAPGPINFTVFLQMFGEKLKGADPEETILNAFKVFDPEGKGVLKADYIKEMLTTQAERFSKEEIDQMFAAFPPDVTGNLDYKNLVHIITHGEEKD

| CDMF75 IC15 [µM] | IC50 [µM] | Compound |
| --- | --- | --- |
| 2.2 | 10.9 | COCCn1cc(C(=O)N[C@@H]2CCc3cc(-c4noc(C5CCC5)n4)ccc32)cn1 [Compound 513, (R)-N-(5-(5-cyclobutyl-1,2,4-oxadiazol-3-yl)-2,3-dihydro-1H-inden-1-yl)-1-(2-methoxyethyl)-1H-pyrazole-4-carboxamide] |
| 2.7 | 11 | [2H]C([2H])([2H])c1nc(-c2ccc3c(c2)CC[C@H]3NC(=O)c2cnn(CCOC)c2)no1 [Compound 514, (R)-1-(2-methoxyethyl)-N-(5-(5-(methyl-d3)-1,2,4-oxadiazol-3-yl)-2,3-dihydro-1H-inden-1-yl)-1H-pyrazole-4-carboxamide] |
| 4.3 | 19.5 | CCc1nc(-c2ccc3c(c2)CCCC3NC(=O)c2cnn(C)c2)no1 (stereo not drawn) [Compound 515, N-(6-(5-ethyl-1,2,4-oxadiazol-3-yl)-1,2,3,4-tetrahydronaphthalen-1-yl)-1-methyl-1H-pyrazole-4-carboxamide] |
| 39.2 | 39.2 | CCc1nc(-c2ccc3c(c2)CCC[C@@H]3NC(=O)c2cnn(C)c2)no1 [Compound 516, (S)-N-(6-(5-ethyl-1,2,4-oxadiazol-3-yl)-1,2,3,4-tetrahydronaphthalen-1-yl)-1-methyl-1H-pyrazole-4-carboxamide] |
| 2.2 | 9.7 | CCc1nc(-c2ccc3c(c2)CCC[C@H]3NC(=O)c2cnn(C)c2)no1 [Compound 517, (R)—N-(6-(5-ethyl-1,2,4-oxadiazol-3-yl)-1,2,3,4-tetrahydronaphthalen-1-yl)-1-methyl-1H-pyrazole-4-carboxamide] |
| 27.8 | 39.2 | CC(CO)c1nc(-c2ccc3c(c2)CC[C@H]3NC(=O)c2nnn(C)n2)no1 (stereo partly drawn) [Compound 518, N-((1R)-5-(5-(1-hydroxypropan-2-yl)-1,2,4-oxadiazol-3-yl)-2,3-dihydro-1H-inden-1-yl)-2-methyl-2H-tetrazole-5-carboxamide] |
| 1.9 | 8.7 | [2H]C([2H])([2H])c1nc(-c2ccc3c(c2)CC[C@H]3NC(=O)c2cnn(CCO)c2)no1 [Compound 519, (R)-1-(2-hydroxyethyl)-N-(5-(5-(methyl-d3)-1,2,4-oxadiazol-3-yl)-2,3-dihydro-1H-inden-1-yl)-1H-pyrazole-4-carboxamide] |
| 1.8 | 8.1 | Cc1nc(-c2ccc3c(c2)CC[C@H]3NC(=O)c2cnn(CCO)c2)no1 [Compound 520, (R)-1-(2-hydroxyethyl)-N-(5-(5-methyl-1,2,4-oxadiazol-3-yl)-2,3-dihydro-1H-inden-1-yl)-1H-pyrazole-4-carboxamide] |
| 1.2 | 5 | O=C(N[C@@H]1CCc2cc(-c3noc(C4CC4)n3)ccc21)c1cnn(CCO)c1 [Compound 521, (R)-N-(5-(5-cyclopropyl-1,2,4-oxadiazol-3-yl)-2,3-dihydro-1H-inden-1-yl)-1-(2-hydroxyethyl)-1H-pyrazole-4-carboxamide] |
| 2.0 | 9.1 | CC(C)c1nc(-c2ccc3c(c2)CC[C@H]3NC(=O)c2cnn(CCO)c2)no1 [Compound 522, (R)-1-(2-hydroxyethyl)-N-(5-(5-isopropyl-1,2,4-oxadiazol-3-yl)-2,3-dihydro-1H-inden-1-yl)-1H-pyrazole-4-carboxamide] |
| 2.9 | 13.3 | COCc1nc(-c2ccc3c(c2)CC[C@H]3NC(=O)c2cnn(CCO)c2)no1 [Compound 523, (R)-1-(2-hydroxyethyl)-N-(5-(5-(methoxymethyl)-1,2,4-oxadiazol-3-yl)-2,3-dihydro-1H-inden-1-yl)-1H-pyrazole-4-carboxamide] |
| 1.7 | 7.3 | O=C(N[C@@H]1CCc2cc(-c3noc(C4CCC4)n3)ccc21)c1cnn(CCO)c1 [Compound 524, (R)-N-(5-(5-cyclobutyl-1,2,4-oxadiazol-3-yl)-2,3-dihydro-1H-inden-1-yl)-1-(2-hydroxyethyl)-1H-pyrazole-4-carboxamide] |
| 0.7 | 2.5 | CCc1nc(-c2ccc3c(c2)CCCC3NC(=O)c2ccnn2C)no1 (stereo not drawn) [Compound 525, N-(6-(5-ethyl-1,2,4-oxadiazol-3-yl)-1,2,3,4-tetrahydronaphthalen-1-yl)-1-methyl-1H-pyrazole-5-carboxamide] |
| 0.4 | 1.3 | CCc1nc(-c2ccc3c(c2)CCC[C@H]3NC(=O)c2ccnn2C)no1 [Compound 526, (R)-N-(6-(5-ethyl-1,2,4-oxadiazol-3-yl)-1,2,3,4-tetrahydronaphthalen-1-yl)-1-methyl-1H-pyrazole-5-carboxamide] |
| 0.3 | 1.1 | C=Cn1cc(C(=O)N[C@@H]2CCc3cc(-c4noc(CC)n4)ccc32)cn1 [Compound 527, (R)-N-(5-(5-ethyl-1,2,4-oxadiazol-3-yl)-2,3-dihydro-1H-inden-1-yl)-1-vinyl-1H-pyrazole-4-carboxamide] |
| 1.1 | 4.9 | O=C(N[C@@H]1CCc2cc(-c3noc(C(F)F)n3)ccc21)c1cnn(CCO)c1 [Compound 528, (R)-N-(5-(5-(difluoromethyl)-1,2,4-oxadiazol-3-yl)-2,3-dihydro-1H-inden-1-yl)-1-(2-hydroxyethyl)-1H-pyrazole-4-carboxamide] |
| 1.8 | 6.8 | COCCn1cc(C(=O)N[C@@H]2CCc3cc(-c4noc(C(F)F)n4)ccc32)cn1 [Compound 529, (R)-N-(5-(5-(difluoromethyl)-1,2,4-oxadiazol-3-yl)-2,3-dihydro-1H-inden-1-yl)-1-(2-methoxyethyl)-1H-pyrazole-4-carboxamide] |
| 2.6 | 8.9 | CCc1nc(-c2ccc3c(c2)CC[C@H]3NC(=O)c2cnn(CC(OC)OC)c2)no1 [Compound 530, (R)-1-(2,2-dimethoxyethyl)-N-(5-(5-ethyl-1,2,4-oxadiazol-3-yl)-2,3-dihydro-1H-inden-1-yl)-1H-pyrazole-4-carboxamide] |
| 4.1 | 25.1 | CCc1nc(-c2ccc3c(c2)CC[C@H]3NC(=O)c2cnn(C(C)C(=O)O)c2)no1 (stereo partly drawn) [Compound 531, 2-(4-(((R)-5-(5-ethyl-1,2,4-oxadiazol-3-yl)-2,3-dihydro-1H-inden-1-yl)carbamoyl)-1H-pyrazol-1-yl)propanoic acid] |
| 1.1 | 5.5 | CCc1nc(-c2ccc3c(c2)CC[C@H]3NC(=O)c2cnn(CC(=O)O)c2)no1 [Compound 532, (R)-2-(4-((5-(5-ethyl-1,2,4-oxadiazol-3-yl)-2,3-dihydro-1H-inden-1-yl)carbamoyl)-1H-pyrazol-1-yl)acetic acid] |
| 1.5 | 8.7 | CCc1nc(-c2ccc3c(c2)CC[C@H]3NC(=O)c2cnn(C(C)CO)c2)no1 (stereo partly drawn) [Compound 533, N-((R)-5-(5-ethyl-1,2,4-oxadiazol-3-yl)-2,3-dihydro-1H-inden-1-yl)-1-(1-hydroxypropan-2-yl)-1H-pyrazole-4-carboxamide] |
| 2.2 | 13.5 | CCc1nc(-c2ccc3c(c2)OCCC3NC(=O)c2cnn(C)c2)no1 (stereo not drawn) [Compound 534, N-(7-(5-ethyl-1,2,4-oxadiazol-3-yl)chroman-4-yl)-1-methyl-1H-pyrazole-4-carboxamide] |
| 1.0 | 5.8 | CCc1nc(-c2ccc3c(c2)OCC[C@H]3NC(=O)c2cnn(C)c2)no1 [Compound 535, (R)-N-(7-(5-ethyl-1,2,4-oxadiazol-3-yl)chroman-4-yl)-1-methyl-1H-pyrazole-4-carboxamide] |
| 1.1 | 3.5 | CCc1nc(-c2ccc3c(c2)OCCC3NC(=O)c2ccnn2C)no1 (stereo not drawn) [Compound 536, N-(7-(5-ethyl-1,2,4-oxadiazol-3-yl)chroman-4-yl)-1-methyl-1H-pyrazole-5-carboxamide] |
| 0.4 | 1.8 | CCc1nc(-c2ccc3c(c2)OCC[C@H]3NC(=O)c2ccnn2C)no1 [Compound 537, (R)-N-(7-(5-ethyl-1,2,4-oxadiazol-3-yl)chroman-4-yl)-1-methyl-1H-pyrazole-5-carboxamide] |
| 1.3 | 6 | CCc1nc(-c2ccc3c(c2)CC[C@H]3NC(=O)c2cnn(C[C@@H](O)CO)c2)no1 [Compound 539, N-[(1R)-5-(5-ethyl(1,2,4-oxadiazol-3-yl))indanyl][1-((2R)-2,3-dihydroxypropyl)pyrazol-4-yl]carboxamide] |
| 0.7 | 2.9 | CCc1nc(-c2ccc3c(c2)CC[C@H]3NC(=O)c2cnn(C[C@H](O)CO)c2)no1 [Compound 540, N-[(1R)-5-(5-ethyl(1,2,4-oxadiazol-3-yl))indanyl][1-((2S)-2,3-dihydroxypropyl)pyrazol-4-yl]carboxamide] |
| 1.2 | 5.2 | CCc1nc(-c2ccc3c(c2)CC[C@H]3NC(=O)c2cnn(C[C@H](C)O)c2)no1 [Compound 541, N-[(1R)-5-(5-ethyl(1,2,4-oxadiazol-3-yl))indanyl][1-((2S)-2-hydroxypropyl)pyrazol-4-yl]carboxamide] |
| 4.6 | 17.3 | CC(=O)O[C@@H](C)c1nc(-c2ccc3c(c2)CC[C@H]3NC(=O)c2cnn(C)c2)no1 [Compound 543, 1-(3-{(1R)-1-[(1-methylpyrazol-4-yl)carbonylamino]indan-5-yl}(1,2,4-oxadiazol-5-yl))(1S)ethyl acetate] |
| 34.9 | 39.2 | COC(=O)Cc1nc(-c2ccc3c(c2)CC[C@H]3NC(=O)c2cnn(C)c2)no1 [Compound 544, methyl 2-(3-{(1R)-1-[(1-methylpyrazol-4-yl)carbonylamino]indan-5-yl}-1,2,4-oxadiazol-5-yl)acetate] |
